Reference: ChEMBL document CHEMBL5614438, “CETZOLE Analogs as Potent Ferroptosis Inducers and Their Target Identification Using Covalent/Affinity Probes” (J Med Chem, 2024)
Activity calls are given as the source filed them. No cut-off for these calls is given here.

What was measured:
NCI-H522 [1] = assay: Cytotoxicity against human NCI-H522 cells assessed as reduction in cell viability incubated for 3 days by methylene blue staining based spectrophotometric analysis; assay type: functional; conditions: NCI-H522, 72 h, time 3 day
HT-1080 [2] = assay: Cytotoxicity against human HT-1080 cells assessed as reduction in cell viability incubated for 3 days by methylene blue staining based spectrophotometric analysis; assay type: functional; conditions: HT-1080, 72 h, time 3 day
MDA-MB-231 = assay: Cytotoxicity against human MDA-MB-231 cells assessed as reduction in cell viability incubated for 3 days by methylene blue staining based spectrophotometric analysis; assay type: functional; conditions: MDA-MB-231, 72 h, time 3 day
NCI-H522 [3] = assay: Induction of ferroptosis in human NCI-H522 cells assessed as cell viability at 7.8 uM incubated for 3 days in presence of liproxstatin-1 by methylene blue staining based spectrophotometric analysis relative to control; assay type: functional; conditions: NCI-H522, 72 h, time 3 day, read-out: Activity
NCI-H522 [4] = assay: Induction of ferroptosis in human NCI-H522 cells assessed as reduction in cell viability at 7.8 uM incubated for 3 days in presence of liproxstatin-1 by methylene blue staining based spectrophotometric analysis; assay type: functional; conditions: time 3.0 day
NCI-H522 [5] = assay: Induction of ferroptosis in human NCI-H522 cells assessed as cell viability at 6.93 uM incubated for 3 days in presence of liproxstatin-1 by methylene blue staining based spectrophotometric analysis relative to control; assay type: functional; conditions: NCI-H522, 72 h, time 3 day, read-out: Activity
NCI-H522 [6] = assay: Induction of ferroptosis in human NCI-H522 cells assessed as reduction in cell viability at 6.93 uM incubated for 3 days in presence of liproxstatin-1 by methylene blue staining based spectrophotometric analysis; assay type: functional; conditions: time 3.0 day
[7] = Drug localization in human HeLa cell nucleus incubated for 1 hr by TAMRA/Hoechst dye based fluorescent live cell imaging analysis; assay type: ADME, subcellular
[8] = Drug localization in human HeLa cell vacuole incubated for 1 hr by TAMRA/Hoechst dye based fluorescent live cell imaging analysis; assay type: ADME, subcellular
NCI-H522 [9] = assay: Cytotoxicity against human NCI-H522 cells overexpressing GFP-tagged SLC7A11 assessed as reduction in cell viability incubated for 3 days by methylene blue staining based spectrophotometric analysis; assay type: functional; conditions: NCI-H522, 72 h, time 3 day
NCI-H522 [10] = assay: Cytotoxicity against human NCI-H522 cells overexpressing GFP-tagged RV assessed as reduction in cell viability incubated for 3 days by methylene blue staining based spectrophotometric analysis; assay type: functional; conditions: NCI-H522, 72 h, time 3 day
U2OS = assay: Cytotoxicity against human U2OS cells assessed as reduction in cell viability incubated for 3 days by methylene blue staining based spectrophotometric analysis; assay type: functional; conditions: 72 h, time 3 day
NCI-H522 [11] = assay: Induction of cell death in human NCI-H522 cells at 10 uM incubated for 3 to 4 hrs by live cell imaging analysis relative to control; assay type: functional; conditions: time 3-4 hrs
NCI-H522 [12] = assay: Induction of ferroptosis in human NCI-H522 cells assessed as cell viability incubated for 3 days in presence of liproxstatin-1 by methylene blue staining based spectrophotometric analysis relative to control; assay type: functional; conditions: time 3 day
NCI-H522 [13] = assay: Induction of ferroptosis in human NCI-H522 cells incubated for 3 days in presence of liproxstatin-1 by methylene blue staining based spectrophotometric analysis; assay type: functional, cell-based; conditions: time 3.0 day
NCI-H522 [14] = assay: Induction of ferroptosis in human NCI-H522 cells assessed as increase in intracellular lipid peroxidation accumulation at 0.51 uM incubated for 6 hrs by C11 BODIPY 581/591 staining based flow cytometry; assay type: functional, cell-based
NCI-H522 [15] = assay: Induction of ferroptosis in human NCI-H522 cells assessed as cell death at 0.51 uM incubated for 3 days by methylene blue staining based spectrophotometric analysis relative to control; assay type: functional; conditions: time 3 day
NCI-H522 [16] = assay: Cytotoxicity against human NCI-H522 cells assessed as reduction in cell viability at 1 uM incubated for 3 days by methylene blue staining based spectrophotometric analysis; assay type: functional; conditions: time 3.0 day
HT-1080 [17] = assay: Cytotoxicity against human HT-1080 cells assessed as reduction in cell viability at 1 uM incubated for 3 days by methylene blue staining based spectrophotometric analysis; assay type: functional; conditions: time 3.0 day
WI-38 = assay: Cytotoxicity against human WI-38 cells assessed as reduction in cell viability at 1 uM incubated for 3 days by methylene blue staining based spectrophotometric analysis; assay type: toxicity; conditions: wi-38, 72 h, time 3 day
MEF = assay: Cytotoxicity against mouse MEF cells assessed as reduction in cell viability at 1 uM incubated for 3 days by methylene blue staining based spectrophotometric analysis; assay type: toxicity; conditions: 72 h, time 3 day
UO-31 [18] = assay: Cytotoxicity against human UO-31 cells assessed as reduction in cell growth by measuring cell viability at 10 uM relative to control; assay type: functional
786-0 [19] = assay: Cytotoxicity against human 786-0 cells assessed as reduction in cell growth by measuring cell viability at 10 uM relative to control; assay type: functional
CCRF-CEM = assay: Cytotoxicity against human CCRF-CEM cells assessed as reduction in cell growth at 10 uM; assay type: functional, cell-based
HL-60 = assay: Cytotoxicity against human HL-60 cells assessed as reduction in cell growth at 10 uM; assay type: functional, cell-based
K562 = assay: Cytotoxicity against human K562 cells assessed as reduction in cell growth at 10 uM; assay type: functional, cell-based
MOLT-4 = assay: Cytotoxicity against human MOLT-4 cells assessed as reduction in cell growth at 10 uM; assay type: functional, cell-based
RPMI-8226 = assay: Cytotoxicity against human RPMI-8226 cells assessed as reduction in cell growth at 10 uM; assay type: functional, cell-based
SR = assay: Cytotoxicity against human SR cells assessed as reduction in cell growth at 10 uM; assay type: functional, cell-based
OVCAR-3 = assay: Cytotoxicity against human OVCAR-3 cells assessed as reduction in cell growth at 10 uM; assay type: functional, cell-based
OVCAR-4 = assay: Cytotoxicity against human OVCAR-4 cells assessed as reduction in cell growth at 10 uM; assay type: functional, cell-based
OVCAR-5 = assay: Cytotoxicity against human OVCAR-5 cells assessed as reduction in cell growth at 10 uM; assay type: functional, cell-based
OVCAR-8 = assay: Cytotoxicity against human OVCAR-8 cells assessed as reduction in cell growth at 10 uM; assay type: functional, cell-based
NCI/ADR-RES = assay: Cytotoxicity against human NCI-ADR-RES cells assessed as reduction in cell growth at 10 uM; assay type: functional, cell-based
SK-OV-3 = assay: Cytotoxicity against human SK-OV-3 cells assessed as reduction in cell growth at 10 uM; assay type: functional, cell-based
786-0 [20] = assay: Cytotoxicity against human 786-0 cells assessed as reduction in cell growth at 10 uM; assay type: functional, cell-based
ACHN = assay: Cytotoxicity against human ACHN cells assessed as reduction in cell growth at 10 uM; assay type: functional, cell-based
CAKI-1 = assay: Cytotoxicity against human CAKI-1 cells assessed as reduction in cell growth at 10 uM; assay type: functional, cell-based
RXF 393 = assay: Cytotoxicity against human RXF 393 cells assessed as reduction in cell growth at 10 uM; assay type: functional, cell-based
SN12C = assay: Cytotoxicity against human SN12C cells assessed as reduction in cell growth at 10 uM; assay type: functional, cell-based
TK-10 = assay: Cytotoxicity against human TK-10 cells assessed as reduction in cell growth at 10 uM; assay type: functional, cell-based
UO-31 [21] = assay: Cytotoxicity against human UO-31 cells assessed as reduction in cell growth at 10 uM; assay type: functional, cell-based
IGROV-1 = assay: Cytotoxicity against human IGROV-1 cells assessed as reduction in cell growth by measuring cell viability at 10 uM relative to control; assay type: functional
[22] = biological target: Glucose-6-phosphate 1-dehydrogenase (Homo sapiens) (UniProt P11413); assay: Inhibition of G6PD in human HCT-116 cells using G6P as substrate assessed as reduction in enzyme activity by measuring absorbance at 100 uM incubated for 20 mins followed by G6P and […]; assay type: cell-based
Sequence of Glucose-6-phosphate 1-dehydrogenase (Homo sapiens) (P11413 whole entry): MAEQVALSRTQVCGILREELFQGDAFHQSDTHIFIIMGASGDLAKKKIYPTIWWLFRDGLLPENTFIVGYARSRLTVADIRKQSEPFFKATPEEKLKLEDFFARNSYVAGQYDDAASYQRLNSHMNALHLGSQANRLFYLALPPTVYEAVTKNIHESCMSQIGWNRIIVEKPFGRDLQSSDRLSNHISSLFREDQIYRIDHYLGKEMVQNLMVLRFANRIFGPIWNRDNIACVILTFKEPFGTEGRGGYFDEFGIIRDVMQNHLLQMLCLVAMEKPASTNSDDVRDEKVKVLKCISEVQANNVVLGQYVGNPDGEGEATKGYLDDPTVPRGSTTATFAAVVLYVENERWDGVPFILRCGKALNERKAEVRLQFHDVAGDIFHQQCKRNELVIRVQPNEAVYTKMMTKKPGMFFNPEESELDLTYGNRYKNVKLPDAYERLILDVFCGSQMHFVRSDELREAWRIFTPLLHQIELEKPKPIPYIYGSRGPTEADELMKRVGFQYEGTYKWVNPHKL

[23] = biological target: Phospholipid hydroperoxide glutathione peroxidase GPX4 (Homo sapiens) (UniProt P36969); assay: Inhibition of recombinant GPX4 (unknown origin) at 100 uM incubated for 60 mins followed by NADPH addition
Sequence of Phospholipid hydroperoxide glutathione peroxidase GPX4 (Homo sapiens) (P36969 whole entry): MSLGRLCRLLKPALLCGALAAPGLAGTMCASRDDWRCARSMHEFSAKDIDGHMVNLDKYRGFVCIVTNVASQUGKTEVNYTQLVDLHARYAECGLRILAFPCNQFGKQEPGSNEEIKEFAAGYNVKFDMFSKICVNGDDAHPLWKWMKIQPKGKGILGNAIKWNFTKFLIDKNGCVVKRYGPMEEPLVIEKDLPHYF

[24] = biological target: Glucose-6-phosphate 1-dehydrogenase (Homo sapiens) (UniProt P11413); assay: Inhibition of G6PD in human HCT-116 cells using G6P as substrate at 100 uM incubated for 20 mins followed by G6P and […]; assay type: cell-based
[25] = biological target: T1, Peroxiredoxin-4 (Homo sapiens) (UniProt Q13162); assay: Inhibition of PRDX4 (unknown origin)
T1 sequence (whole entry): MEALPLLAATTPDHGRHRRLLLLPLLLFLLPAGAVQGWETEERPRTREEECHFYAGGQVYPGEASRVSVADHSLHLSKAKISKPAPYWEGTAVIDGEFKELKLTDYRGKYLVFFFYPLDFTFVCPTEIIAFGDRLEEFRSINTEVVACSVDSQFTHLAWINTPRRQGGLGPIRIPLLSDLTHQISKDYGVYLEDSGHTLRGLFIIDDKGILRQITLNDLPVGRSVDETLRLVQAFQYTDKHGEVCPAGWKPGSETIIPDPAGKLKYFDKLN

NCI-H522 [26] = assay: Induction of ferroptosis in human NCI-H522 cells assessed as increase in intracellular lipid peroxidation accumulation at 0.36 uM incubated for 6 hrs by C11 BODIPY 581/591 staining based flow cytometry; assay type: functional, cell-based
NCI-H522 [27] = assay: Induction of ferroptosis in human NCI-H522 cells assessed as cell death at 0.38 uM incubated for 3 days by methylene blue staining based spectrophotometric analysis relative to control; assay type: functional; conditions: time 3 day
NCI-H522 [28] = assay: Induction of ferroptosis in human NCI-H522 cells assessed as increase in intracellular lipid peroxidation accumulation at 0.39 uM incubated for 6 hrs by C11 BODIPY 581/591 staining based flow cytometry; assay type: functional, cell-based
NCI-H522 [29] = assay: Induction of ferroptosis in human NCI-H522 cells assessed as cell death at 0.39 uM incubated for 3 days by methylene blue staining based spectrophotometric analysis relative to control; assay type: functional; conditions: time 3 day

## C#CCCC(=O)Nc1ccc(C(=O)c2ccc(NC(=O)CO/N=C3\CC(c4csc(C#C)n4)=C(C)C3O)cc2)cc1 (stereo unspecified)
NCI-H522 [1]
  CC50: 2600 nM
HT-1080 [2]
  CC50: 1200 nM
MDA-MB-231
  CC50: 1330 nM
NCI-H522 [3]
  viability at 7.8 µM: 45%
NCI-H522 [4]
  Activity: inactive

## C#CCO/N=C1\CC(c2csc(C#C)n2)=C(C)C1O (stereo unspecified)
NCI-H522 [1]
  CC50: 2310 nM
HT-1080 [2]
  CC50: 1170 nM
MDA-MB-231
  CC50: 2700 nM
NCI-H522 [5]
  viability at 6.93 µM: 75%
NCI-H522 [6]
  Activity: inactive
[7]
  Drug uptake: Active
[8]
  Drug uptake: Active

## C#Cc1nc(C2=C(C)C(OC(C)=O)/C(=N/OC(C)=O)C2)cs1 (stereo unspecified)
NCI-H522 [1]
  CC50: 170 nM
NCI-H522 [9]
  CC50: 1590 nM
NCI-H522 [10]
  CC50: 260 nM
HT-1080 [2]
  CC50: 140 nM
U2OS
  CC50: 7260 nM
MDA-MB-231
  CC50: 230 nM
NCI-H522 [11]
  Activity: 50%
NCI-H522 [12]
  Activity: 60%
NCI-H522 [13]
  Activity: Active
NCI-H522 [14]
  Activity: Active
NCI-H522 [15]
  Activity: ~60%
NCI-H522 [16]
  Activity: Active
HT-1080 [17]
  Activity: Active
WI-38
  Activity: Toxic
MEF
  Activity: Toxic
UO-31 [18]
  Activity: -95%
786-0 [19]
  Activity: -95%
CCRF-CEM
  Activity: inactive
HL-60
  Activity: inactive
K562
  Activity: inactive
MOLT-4
  Activity: inactive
RPMI-8226
  Activity: inactive
SR
  Activity: inactive
OVCAR-3
  Activity: inactive
OVCAR-4
  Activity: inactive
OVCAR-5
  Activity: inactive
OVCAR-8
  Activity: inactive
NCI/ADR-RES
  Activity: inactive
SK-OV-3
  Activity: inactive
786-0 [20]
  Activity: inactive
ACHN
  Activity: inactive
CAKI-1
  Activity: inactive
RXF 393
  Activity: inactive
SN12C
  Activity: inactive
TK-10
  Activity: inactive
UO-31 [21]
  Activity: inactive
IGROV-1
  Activity: -95%
[22]
  Activity: 0.18
[23]
  inhibition: Active
[24]
  inhibition: Active
[25]
  inhibition: inactive

## C#Cc1nc(C2=C(C)C(OC(=O)CC)/C(=N/OC(=O)CC)C2)cs1 (stereo unspecified)
NCI-H522 [1]
  CC50: 120 nM
NCI-H522 [9]
  CC50: 2060 nM
NCI-H522 [10]
  CC50: 590 nM
HT-1080 [2]
  CC50: 150 nM
U2OS
  CC50: 13400 nM
MDA-MB-231
  CC50: 180 nM
NCI-H522 [26]
  Activity: Active
NCI-H522 [27]
  Activity: ~60%
NCI-H522 [16]
  Activity: Active
HT-1080 [17]
  Activity: Active
WI-38
  Activity: Toxic
MEF
  Activity: Toxic
[22]
  Activity: 0.13
[23]
  inhibition: Active
[24]
  inhibition: Active
[25]
  inhibition: inactive

## C#Cc1nc(C2=C(C)C(OC(=O)CCC)/C(=N/OC(=O)CCC)C2)cs1 (stereo unspecified)
NCI-H522 [1]
  CC50: 130 nM
NCI-H522 [9]
  CC50: 1930 nM
NCI-H522 [10]
  CC50: 280 nM
HT-1080 [2]
  CC50: 190 nM
U2OS
  CC50: 5850 nM
MDA-MB-231
  CC50: 830 nM
NCI-H522 [28]
  Activity: Active
NCI-H522 [29]
  Activity: ~60%
NCI-H522 [16]
  Activity: Active
HT-1080 [17]
  Activity: Active
WI-38
  Activity: Toxic
MEF
  Activity: Toxic
